From a melting point compilation (Tetko et al.; mined from patent text by program, amines drawn as free bases though some values may be those of a salt)

Row | SMILES | melting point [°C]
1 | COc1cc(C(=O)NC2CCN(C)CC2)ccc1Nc1ncc2c(n1)N(C1CCCC1)CC(F)(F)C(=O)N2C | 241 to 243
2 | COc1ccc(C2=NN(C3CCN(S(=O)(=O)c4ccc(C#N)cc4)CC3)C(=O)C(C)(C)C2)cc1OC | 161 to 163
3 | Fc1ccc2c(c1)[C@@H]1c3ccccc3N[C@@H]1C2 (relative stereo) | 116 to 117
4 | CCCCC[C@H]1CC[C@H](CCC2CCC(c3ccc(O)cc3)(c3ccc(O)cc3)CC2)CC1 | 203 to 204
5 | CCOC(=O)C(=O)c1scc(Br)c1Br | 71
6 | CN(C)C(=O)c1cc(N)cc(C(F)(F)F)c1 | 154
7 | NC1C(=O)N(CC2C3CC4CC(C3)CC2C4)c2ccccc2N(c2ccccc2)C1=O (centres undefined) | 209 to 210
8 | Cc1nc(N)c2nc(C)n(Cc3cc(-c4ccc(F)cc4)no3)c2c1C | 278 to 279
9 | COC(=O)C1CCSC(C)(C)C(=O)N1 (centres undefined) | 172 to 174
10 | O=C(CC(CC1CCCCC1)C(=O)O)c1ccco1 (centres undefined) | 91 to 94
11 | Nc1ccn2nc(N3CCCC3)nc2c1 | 221 to 225
12 | O=[N+]([O-])c1cc(NCCO)ccc1NCCO | 107
13 | O=C(N=c1sc2cc(OC(F)(F)F)ccc2n1CCO)C(F)(F)F | 144
14 | COc1cc2c(cc1O)CCN(Cc1cccc(Oc3ccccc3)c1)C2 | 139 to 140
15 | NC(=O)Cc1cc(Oc2ccc3c(ccn3C(=O)Nc3ccc(N4CCN(C5CC5)CC4)c(C(F)(F)F)c3)c2)ncn1 | 236 to 240
16 | CCCCCCCCC1(CCCCCCCC)c2cc(Cl)ccc2-c2ccc(Cl)cc21 | 50 to 51
17 | O=C1NCCc2cc(F)ccc21 | 107 to 108
18 | CC(Cc1c[nH]c2ccccc12)(NC(=O)OC1C2CC3CC(C2)CC1C3)C(=O)NCCc1ccccn1 (centres undefined) | 89 to 91
19 | Nc1csc(-c2cc3c(Oc4ccc(Cl)cc4)cncc3s2)n1 | 168 to 170
20 | Cc1cc(Cl)nnc1-c1ccccc1 | 122
21 | CCCC(C)(CO)c1cc(Cl)nnc1Cl (centres undefined) | 99 to 100
22 | O=[N+]([O-])CCc1[nH]ccc1-c1ccc(I)cc1 | 88 to 89
23 | C=CCOc1ccccc1C1C(C(=O)OCC)=C(C)NC(C#N)=C1C(=O)OCC (centres undefined) | 143 to 145
24 | CCCCCCCCCCCCCCc1ccc(OCC2COC(C)(C)O2)cc1 (centres undefined) | 52 to 53
25 | Nc1nnn(CC(F)(F)F)n1 | 95 to 97
26 | CCOC(=O)c1c(C(=O)OC)c(O)c2cc(OC)c(OC)c(OC)c2c1-c1ccc(OC)c(OC)c1 | 157 to 159

Row | SMILES | melting point [°C]
27 | COCCONS(=O)(=O)c1ccccc1 | 110 to 112
28 | CCOC(=O)c1[nH]c2c(C)ccc(C)c2c1C(=O)OC | 128 to 129
29 | CN(C)CCNC(=O)N1CCN(c2ccc(C(N)=O)cc2)CC1 | 193 to 195
30 | NS(=O)(=O)c1ccc(NC(=O)Nc2c(F)c(F)c(F)c(F)c2F)cc1 | 251 to 253
31 | CNC(=O)Nc1ccc2c(c1)C(CN1CCC(n3ccc4cc(Cl)ccc43)CC1)CC2 (centres undefined) | 193 to 195
32 | C#CCN1C(=O)COc2cc(F)c(-n3c(=O)oc4c(c3=O)CCC4)cc21 | 222 to 224
33 | CCOC(=O)C(NC(=O)Cc1ccc(N)cn1)C(=O)OCC | 89 to 90
34 | O=C(c1ccc(OCC2CC2)c2oc3ccccc3c12)[NH+]([O-])c1c(Cl)cncc1Cl (centres undefined) | 263 to 265
35 | NC(=NC(=O)Cn1c(Cl)ccc1Cl)NC(=O)Cc1ccccc1 | 181 to 183
36 | COC(c1cc(C)c(OCC(=O)O)c(C)c1)(C(F)(F)F)C(F)(F)F | 105 to 108
37 | CC(C)CNC(=O)[C@H](C)C[C@H](O)[C@H](CC1CCCCC1)NC(=O)[C@H](Cc1cscn1)NC(=O)[C@@H](CC(=O)N(C)Cc1ccccc1)Cc1ccccc1 | 118 to 120
38 | CC(C)N(CCC1(c2ccccn2)CCC(=O)NC1=O)C(C)C (centres undefined) | 101 to 102
39 | Nc1c(Cl)ncnc1NCc1ccccn1 | 140
40 | CCN1C(=O)C(=C(C)O)SC1=S | 93
41 | CCCn1c(COC)nc2c(N)nc3ccc(OCCCOC(=O)N4CCOCC4)cc3c21 | 173 to 174
42 | Cc1ccc(S(=O)(=O)OCC2COc3ccc4[nH]c(=O)[nH]c4c3O2)cc1 (centres undefined) | 202 to 204
43 | CCCCCCS(=O)(=O)Oc1c(I)cc(I)cc1I | 70 to 71
44 | CSc1nc(NC(=O)C2([N+](=O)[O-])C=CC=CC2S(N)(=O)=O)nn1C (centres undefined) | 210 to 213
45 | CCC1(CC)CCNC1=O | 52 to 53
46 | CC(=O)Nc1c(N)cc(C(=O)O)c(O)c1Br | 210 to 211
47 | CCCc1cc(=O)on1C(=O)c1ccc(Cl)cc1Cl | 63 to 65.5
48 | N#CCOc1cccnc1N | 100 to 101
49 | CC(C)CNc1c2c(nc3cn[nH]c13)CCCC2 | 124 to 127
50 | O=C(NC(CC12CC3CC(CC(C3)C1)C2)Nc1c(Nc2cccnc2)c(=O)c1=O)c1ccccc1Cl (centres undefined) | 224 to 225
51 | OC1CSC(Oc2cncc(-c3ccc(F)cn3)c2)C(O)C1O (centres undefined) | 166 to 190
52 | CSc1cc(C#N)c(Oc2ccc(Cl)c(Cl)c2)cn1 | 96 to 97

More lines, now with the values ahead:

Row | melting point [°C] | SMILES
53 | 66.5 to 67.5 | CSc1ccc2ccc3ccccc3c(=O)c2c1
54 | 230 to 232 | COc1cccc2c(Nc3ccc(C(=O)NC4CCN(Cc5ccccc5)CC4)cc3)c(C(=O)NC3CCN(C)CC3)cnc12
55 | 204 to 206 | CN1CC(c2ccc(Cc3ccc(F)cc3)cn2)=C(O)C1=O
56 | 132 | COc1ccc(Cl)cc1C(=O)Nc1ccc(C(F)(F)F)cc1
57 | 65 to 66 | O=C(c1cccc(Oc2ccccc2)c1)c1cccc(Br)n1
58 | 172 to 173 | Cc1cc(CN2CCC(N(C)S(=O)(=O)c3ccc(Nc4nccc(Nc5ccc(F)c(C)c5)n4)cc3)CC2)no1
59 | 200 to 201 | CN(CCOc1ccc(CC(SCCN)C(=O)O)cc1)c1nc2ccccc2o1 (centres undefined)
60 | 161 to 162 | CC(C)(C(=O)O)C(=O)NCCc1cn(C(c2ccccc2)(c2ccccc2)c2ccccc2)cn1
61 | 165 to 167 | CC(C)(C)c1cc(CCc2ccccc2NC(=O)NCC(C)(C)c2ccc(Cl)c(Cl)c2)cc(C(C)(C)C)c1O
62 | 204 to 205 | Cc1cccc2nc(NC(=O)c3ccc(C(C)(C)C)cc3)cn12
63 | 148 | Cc1c(NC(=O)c2ccc(OCCCC(F)(F)F)cc2F)ccc2cc(CN3CCCC3)cnc12
64 | 190 to 191 | CC1(C)C(C(=O)NO)N(S(=O)(=O)c2ccc(-c3ccc(Br)cc3)cc2)CCS1(=O)=O (centres undefined)
65 | 203 | Clc1nn2c(-c3ccccc3Br)nnc2c2ccccc12
66 | 188 to 190 | Cc1ccc(Cn2c(=O)cc(C(C)C(=O)O)c3cc(C)ccc32)cc1 (centres undefined)
67 | 213 to 214 | COc1ccc(N2CCN(Cc3c[nH]c4ncccc34)CC2)cc1
68 | 268 to 270 | Cc1nc2c3c(c(C(=O)NCC(O)CO)cc2n1C)CCC(c1ccccc1)O3 (centres undefined)
69 | 105 to 108 | N#CC(N=C(c1ccccc1)c1ccccc1)c1ncc(C(F)(F)F)cc1Cl (centres undefined)
70 | 117 to 119 | O=C(Nc1cccnc1NCc1ccc(Cl)cc1)c1ccccc1Cl
71 | 239 to 243 | CSc1ccn2nc(S(=O)(=O)Nc3c(Cl)cccc3Cl)nc2n1
72 | 124 to 126 | Cc1ncsc1NC(=O)Nc1ccc(-n2nc(C(F)(F)F)cc2C2CC2)cc1
73 | 110 | CCOc1ccc(-c2c(S(C)(=O)=O)ccc(C(=O)c3cnn(C(C)(C)C)c3O)c2C)cc1
74 | 219 to 221 | O=C(O)c1cccc2c1CCc1ccc(O)cc1S2
75 | 169 to 170 | O=C(O)C(=O)c1ccc(OCCCNC(=O)c2ccc3ccccc3c2)cc1
76 | 136 to 137 | CCn1cnc2c(Nc3cccc(C(F)(F)F)c3)nc(NCCCO)nc21

Row | melting point [°C] | SMILES
77 | 70 to 71 | Cc1ccc(C(=O)N(CCCNC(=O)OC(C)(C)C)C(c2nc3snc(C)c3c(=O)n2Cc2ccccc2)C(C)C)cc1 (centres undefined)
78 | 217 to 218 | Cc1cc(C(=O)O)ccc1NC(=O)C(CS)Cc1ccccc1 (centres undefined)
79 | 133 | COc1ccccc1N1Sc2ccccc2C(c2ccccc2)C1=O (centres undefined)
80 | 79 to 81 | COc1cccc(Sc2cccc(N)c2C#N)c1
81 | 108 to 110 | O=C(O)CCCCCCCn1cc(-c2ccccc2)c(-c2ccccc2)n1
82 | 119 to 121 | O=c1c2ccccc2cc(-c2ccc(F)cc2)n1CCF
83 | 224 to 226 | CN(C(=O)OC(C)(C)C)C1CC=C(c2c[nH]c3ccc([N+](=O)[O-])cc23)CC1 (centres undefined)
84 | 172 to 174 | CCN(CC)CCCNC(=O)Cn1c(-c2ccc(Cl)cc2)nc2cccnc21
85 | 214 to 216 | Cc1ccccc1NC(=O)c1ccc(C(=O)N2Cc3ccccc3Cc3ccccc32)cc1
86 | 144 to 145 | CCOCCC(Cc1ccc(NC(=O)NC(=O)c2ccc(C#N)cc2)cc1)C(=O)OC(C)(C)C (centres undefined)
87 | 184 to 186 | O=C(O)COc1cc(Cl)ccc1C(=O)NCc1ccc(Cl)cc1
88 | 190 to 191 | O=C(NCCCCc1ccc(-c2ccc(=O)[nH]n2)cc1)c1cccnc1
89 | 127 to 132 | COc1ccc(N2CC(O)c3cc(Cl)sc3S2(=O)=O)cc1 (centres undefined)
90 | 151 to 153 | CCOC(=O)c1csc(/C=C/c2cccc([N+](=O)[O-])c2)n1
91 | 149 to 150 | C=CCOC(=O)Nc1sc(-c2cccc(Cl)c2)cc1C(=O)OC
92 | 135 to 136 | CCOC(=O)/C=C/c1cn(C)nc1OCc1ccc(OCc2nc(-c3ccco3)oc2C)c(OC)c1
93 | 110 | CS/C=C(/C)n1c(=O)n(C)c2cc(F)ccc21
94 | 100 to 103 | Fc1cccc(F)c1-c1ccc2cccnc2n1
95 | 189 to 190 | COc1ccc(C2Sc3c(ccc4ccccc34)N(CCN(C)C)C(=O)C2OC(=O)c2cc(OC)c(OC)c(OC)c2)cc1 (centres undefined)
96 | 130 to 132 | COc1ccc(S(=O)(=O)N2CCc3cccc(-c4ccc(C(=O)O)cc4)c32)cc1
97 | 238 to 239 | Cc1cc2c(cc1C(=O)c1ccc(C(=O)O)cc1)C1(C)C3(C)CCC(C3)C1(C)O2 (centres undefined)
98 | > 230 | O=C(O)CC[C@H](NC(=O)c1ccc(CCn2cnc3nccc-3c2O)cc1)C(=O)O
99 | 87 to 88 | CCOC(=O)[C@H](Cc1ccc(O)cc1)NC(=O)OC(C)(C)C
